One test relates to α1 receptor. The test can be described thus: Anti-α1 action: norepinephrine (NE)-induced tonic contraction of isolated thoracic aorta (helical strip). The following applies: contraction induced by 10^-5 M norepinephrine taken as 100%, guinea pig thoracic aorta, 37° C, compounds marked * tested as hydrochloride; for Anti α1 action (% of Control), 10^-7 M: test drug 10^-7 M, 0.1 µM; for Anti α1 action (% of Control), 10^-8 M: test drug 10^-8 M, 0.01 µM. Set-up: species or system Hartley male guinea pig. Here is the method:
The thoracic aorta of each Hartley male guinea pig (body weight: 300-500 g) was excised. A sample cut in a helical form was suspended under 1 g load in a Magnus cylinder filled with the Tyrode solution of 37° C. which had been saturated with a mixed gas consisting of 95% O2 +5% CO2. Using an isometric transducer ("TB-612J"/NIHON KOHDEN) and a pressure preamplifier ("AP-620G"/NIHON KOHDEN), variations in tension were measured. The measurement results were recorded on a thermal pen-writing recorder ("WT-647G"/NIHON KOHDEN).
Taking the tonic contraction induced by 10^- 5M norepinephrine (NE) as 100%, the percent contractions upon addition of each test drug at 10^-8 and 10^-7 M were determined as anti-α1 action.

The target of test [1] is T1, serotonin (5-HT) receptor (Cavia porcellus, UniProt A0A286Y537).
T1 construct: 5-HT-induced contraction
The test can be described thus: Anti-serotonin action (anti-5-HT action): 5-HT-induced contraction of isolated superior mesenteric artery (helical strip). More on the design: species or system Hartley male guinea pig. The following applies: contraction induced by 10^-5 M serotonin taken as 100%, guinea pig superior mesenteric artery, 37° C, compounds marked * tested as hydrochloride; for remaining activity at 1 µM: test drug 10^-6 M, read-out: Anti 5-HT action (% of Control), 10^-6 M; for remaining activity at 0.1 µM: test drug 10^-7 M, read-out: Anti 5-HT action (% of Control), 10^-7 M. Here is the method:
(2) Anti-serotonin action (anti-5-HT action)
A sample cut in a helical form was suspended under 0.3 g load in a Magnus cylinder filled with the Tyrode solution of 37° C. which had been saturated with a mixed gas consisting of 95% O2 +5% CO2. Using an isometric transducer ("UL-10"/SHINKOH K.K.) and a pressure preamplifier ("DSA-605A"/SHINKOH K.K.), variations in tension were measured. The measurement results were recorded on a pen-writing recorder ("VP-6537A"/NATIONAL K.K.). Taking the contraction induced by 10^-5 M serotonin (5-HT) as 100%, the percent contractions induced by 10^-5 M 5-HT in the presence of each test drug at 10^-7 and 10^-6 M were determined as anti-5-HT action.

In another test the test system is platelet aggregation. The test can be described thus: Anti-platelet-aggregating action: platelet aggregation induced by ADP + 5-HT in platelet rich plasma. In kind it is cell-based, Japanese white house rabbit. The following applies: Oryctolagus cuniculus, test drug 10^-7 M, aggregation induced by 10^-6 M ADP + 10^-5 M 5-HT, 1 mM CaCl2 CaCl2, rabbit PRP, compound marked * (45) tested as hydrochloride, read-out: Inhibitory rate of platelet aggregation (%). Here is the method:
(3) Anti-platelet-aggregating action
Blood was drawn from the auricular artery of Japanese white house rabbit (male, about 3 kg), whereby a platelet rich plasma sample (PRP) was prepared. Platelet aggregating ability was measured using a platelet aggregation measuring apparatus ("PAM-SC"/MEBANIX).
Found under the presence of 1 mM of CaCl2 was a controlling action of the test drug (10^-7 M) against the maximum reaction (100%) of the platelet aggregation induced by 10^-6 M of ADP+10^-5 M of 5-HT.

Structures can show the parent of a compound that is named as a salt.

T1 sequence (A0A286Y537 1-470): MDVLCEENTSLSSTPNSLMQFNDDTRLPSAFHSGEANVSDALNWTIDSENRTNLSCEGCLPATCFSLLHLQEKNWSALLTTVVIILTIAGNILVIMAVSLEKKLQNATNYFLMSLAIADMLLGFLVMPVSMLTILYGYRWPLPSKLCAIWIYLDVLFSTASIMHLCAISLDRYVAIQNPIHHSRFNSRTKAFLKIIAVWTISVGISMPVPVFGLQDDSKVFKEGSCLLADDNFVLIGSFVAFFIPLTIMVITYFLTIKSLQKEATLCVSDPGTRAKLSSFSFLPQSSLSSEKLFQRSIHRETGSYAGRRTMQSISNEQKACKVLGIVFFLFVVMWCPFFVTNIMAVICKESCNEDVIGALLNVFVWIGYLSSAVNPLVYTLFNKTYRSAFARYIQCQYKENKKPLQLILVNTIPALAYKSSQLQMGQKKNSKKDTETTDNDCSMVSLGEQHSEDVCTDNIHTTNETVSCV

In the case of `CCn1ccc2c1C(=O)N(CCCN1CCN(c3ccccc3)CC1)CCC2=O` [Compound No. 19, 1-Ethyl-7-[3-(4-phenylpiperazin-1-yl)propyl]-6,7-dihydropyrrolo[2,3-c]azepine-4,8(1H,5H)-dione], in the test with α1 receptor, the “Anti α1 action (% of Control), 10^-7 M” value is listed as 90.1 % of Control and the “Anti α1 action (% of Control), 10^-8 M” value was 100.0 % of Control. Further, in test [1], the remaining activity at 1 µM amounted to 12.4% and the remaining activity at 0.1 µM stood at 60.3%.
For `Cn1ccc2c1C(=O)N(CCCN1CCN(c3ccccc3)CC1)CCC2=NO` [Compound No. 45, 4-hydroxyimino-1-methyl-7-[3-(4-phenylpiperazin-1-yl)propyl]-4,5,6,7-tetrahydropyrrolo[2,3-c]azepin-8(1H)-one], in the test on α1 receptor, the “Anti α1 action (% of Control), 10^-7 M” value was 23.8 % of Control and the “Anti α1 action (% of Control), 10^-8 M” value is listed as 79.8 % of Control. Besides, the remaining activity at 0.1 µM in test [1] was 11.2%. Also, in the test on platelet aggregation, the inhibition at 0.1 µM worked out at 30%.
Turning to `Cn1ccc2c1C(=O)N(CCCN1CCN(c3ccccc3)CC1)CCC2O` (centres unmarked) [Compound No. 39, 4-hydroxy-1-methyl-7-[3-(4-phenylpiperazin-1-yl)propyl]-4,5,6,7-tetrahydropyrrolo[2,3-c]azepin-8(1H)-one], in the test on α1 receptor, the “Anti α1 action (% of Control), 10^-7 M” value is given as 80.5 % of Control and the “Anti α1 action (% of Control), 10^-8 M” value is on record as 99.3 % of Control. In addition, in test [1], the remaining activity at 1 µM was determined as 8.7% and the remaining activity at 0.1 µM is 34.3%. Also, in the test with platelet aggregation, the inhibition at 0.1 µM is 33%.
As for `O=C(c1ccc(F)cc1)C1CCN(CCn2c(=O)[nH]c3ccccc3c2=O)CC1` [Ketanserin tartrate, reference compound], the inhibition at 0.1 µM in the test with platelet aggregation came to 20%.
Consider `Cn1ccc2c1C(=O)N(CCCN1CCN(c3ccccc3)CC1)CCC2=O` [Compound No. 18, 1-Methyl-7-[3-(4-phenylpiperazin-1-yl)propyl]-6,7-dihydropyrrolo[2,3-c]azepine-4,8(1H,5H)-dione], for which, in the test with α1 receptor, the “Anti α1 action (% of Control), 10^-7 M” value was 85.5 % of Control and the “Anti α1 action (% of Control), 10^-8 M” value is on record as 100.0 % of Control. In addition, in test [1], the remaining activity at 1 µM stood at 16.3% and the remaining activity at 0.1 µM was found to be 52.8%.
Consider `O=C1c2c(ccn2Cc2ccccc2)C(=NO)CCN1CCCN1CCN(c2ccccc2)CC1` [Compound No. 48, 1-Benzyl-4-hydroxyimino-7-[3-(4-phenylpiperazin-1-yl)propyl]-4,5,6,7-tetrahydropyrrolo[2,3-c]azepin-8(1H)-one], for which, in the test with α1 receptor, the “Anti α1 action (% of Control), 10^-7 M” value is listed as 60.5 % of Control and the “Anti α1 action (% of Control), 10^-8 M” value is 98.9 % of Control. For the same molecule, in test [1], the remaining activity at 1 µM was found to be 5.1% and the remaining activity at 0.1 µM worked out at 52.8%.
`CCn1ccc2c1C(=O)N(CCCN1CCN(c3ccccc3)CC1)CCC2=NO` [Compound No. 47, 1-Ethyl-4-hydroxyimino-7-[3-(4-phenylpiperazin-1-yl)propyl]-4,5,6,7-tetrahydropyrrolo[2,3-c]azepin-8(1H)-one]: in the test with α1 receptor, the “Anti α1 action (% of Control), 10^-7 M” value is on record as 81.9 % of Control and the “Anti α1 action (% of Control), 10^-8 M” value is on record as 100.0 % of Control. Besides, the remaining activity at 0.1 µM in test [1] worked out at 5.2%. Besides, the inhibition at 0.1 µM in the test with platelet aggregation is 34%.
Take `Cn1ccc2c1C(=O)N(CCCN1CCN(c3ccc(F)cc3)CC1)CCC2O` (centres unmarked) [Compound No. 40, 7-[3-[4-(4-Fluorophenyl)piperazin-1-yl]propyl]-4-hydroxy-1-methyl-4,5,6,7-tetrahydropyrrolo[2,3-c]azepin-8(1H)-one]: in the test with α1 receptor, the “Anti α1 action (% of Control), 10^-7 M” value is given as 94.5 % of Control and the “Anti α1 action (% of Control), 10^-8 M” value is given as 100.0 % of Control. In addition, in test [1], the remaining activity at 1 µM was 12.5% and the remaining activity at 0.1 µM is 24.2%.
As for `CON=C1CCN(CCCN2CCN(c3ccccc3)CC2)C(=O)c2c1ccn2C` [Compound No. 46, 4-Methoxyimino-1-methyl-7-[3-(4-phenylpiperazin-1-yl)propyl]-4,5,6,7-tetrahydropyrrolo[2,3-c]azepin-8(1H)-one], in the test with α1 receptor, the “Anti α1 action (% of Control), 10^-7 M” value was 28.0 % of Control and the “Anti α1 action (% of Control), 10^-8 M” value was 78.7 % of Control. Moreover, in test [1], the remaining activity at 1 µM was found to be 12.8% and the remaining activity at 0.1 µM amounted to 59.5%.
For the molecule `COc1cccc(N2CCN(CCCN3CCC(=NO)c4ccn(C)c4C3=O)CC2)c1` [Compound No. 50, 4-Hydroxyimino-7-[3-[4-(3-methoxyphenyl)piperazin-1-yl]propyl]-1-methyl-4,5,6,7-tetrahydropyrrolo[2,3-c]azepin-8(1H)-one], in the test with α1 receptor, the “Anti α1 action (% of Control), 10^-7 M” value is reported as 38.8 % of Control and the “Anti α1 action (% of Control), 10^-8 M” value is given as 57.6 % of Control. Besides, in test [1], the remaining activity at 1 µM was found to be 18.4% and the remaining activity at 0.1 µM was determined as 60%.
`Cn1ccc2c1C(=O)N(CCCN1CCC(c3ccccc3)CC1)CCC2=NO` [Compound No. 52, 4-Hydroxyimino-1-methyl-7-[3-(4-phenylpiperidin-1-yl)propyl]-4,5,6,7-tetrahydropyrrolo[2,3-c]azepin-8(1H)-one]: in the test on α1 receptor, the “Anti α1 action (% of Control), 10^-7 M” value was 62.6 % of Control and the “Anti α1 action (% of Control), 10^-8 M” value is reported as 97.2 % of Control. Also, in test [1], the remaining activity at 1 µM was 9.9% and the remaining activity at 0.1 µM turned out to be 39.1%.
Take `Cn1ccc2c1C(=O)N(CCCN1CCC(C(=O)c3ccc(F)cc3)CC1)CCC2=NO` [Compound No. 43]: in the test with α1 receptor, the “Anti α1 action (% of Control), 10^-7 M” value is 37.9 % of Control and the “Anti α1 action (% of Control), 10^-8 M” value is reported as 73.3 % of Control. Moreover, in test [1], the remaining activity at 1 µM is 8.7% and the remaining activity at 0.1 µM came out at 43.1%. In addition, the inhibition at 0.1 µM in the test with platelet aggregation came out at 18%.

The record behind these values is patent US5399557A, “Pyrroloazepine compound” (Suntory Limited, priority 1991, dated 1995).
